Experimental findings from article PMC8119466, “A screen of FDA-approved drugs identifies inhibitors of protein tyrosine phosphatase 4A3 (PTP4A3 or PRL-3)” (Scientific Reports, 2021) are described below.

Counter-ions that a name gives are not always drawn. Like-named read-outs stand apart in the source and are kept apart here.

What all share (assay type): biochemical
The target in one experiment is T1, recombinant PRL-3 (Homo sapiens, UniProt O75365).
T1 construct: 6xHis (N, cleaved yes); made in house; host or cells: E. coli One Shot BL21 Star
T1 sequence (O75365 whole entry): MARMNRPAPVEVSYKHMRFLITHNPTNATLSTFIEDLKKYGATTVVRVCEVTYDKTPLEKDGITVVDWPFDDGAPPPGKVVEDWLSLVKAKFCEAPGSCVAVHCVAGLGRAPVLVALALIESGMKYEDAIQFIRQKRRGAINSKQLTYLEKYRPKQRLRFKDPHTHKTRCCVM
The experiment can be described thus: In vitro phosphatase assay (DiFMUP hydrolysis), PRL-3. Also: test concentration or dose not given here.

A further experiment concerns the target T2, recombinant PRL-2 (Homo sapiens, UniProt Q12974).
T2 construct: 6xHis (N, cleaved yes); made in house; host or cells: E. coli One Shot BL21 Star
T2 sequence (Q12974 1-167): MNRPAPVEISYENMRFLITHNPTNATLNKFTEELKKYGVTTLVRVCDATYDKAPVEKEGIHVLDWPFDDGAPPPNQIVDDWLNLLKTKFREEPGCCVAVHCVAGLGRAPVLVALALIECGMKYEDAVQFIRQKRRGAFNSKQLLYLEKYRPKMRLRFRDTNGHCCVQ
The experiment in a line: In vitro phosphatase assay (DiFMUP hydrolysis), PRL-2.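 Also: PRL-2 activity read as DiFMUP hydrolysis after 20 min at room temperature with drug, enzyme first pre-reduced at 4 °C for 20 min.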

A further experiment addresses T3, recombinant PRL-1 (Homo sapiens, UniProt Q93096).
T3 construct: 6xHis (N, cleaved yes); made in house; host or cells: E. coli One Shot BL21 Star
T3 sequence (Q93096 1-173): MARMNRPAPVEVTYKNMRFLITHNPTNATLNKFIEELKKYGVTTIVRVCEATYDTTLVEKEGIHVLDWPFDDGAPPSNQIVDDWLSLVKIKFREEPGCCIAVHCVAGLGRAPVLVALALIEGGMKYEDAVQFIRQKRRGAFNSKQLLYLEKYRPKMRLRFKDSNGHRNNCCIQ
The experiment can be described thus: In vitro phosphatase assay (DiFMUP hydrolysis), PRL-1. Also: test concentration or dose not given here.

The mark [1] stands for this setting: FDA-approved drug screen, compared to DMSO.

On to `Cc1ccc(C)c(OCCCC(C)(C)C(=O)O)c1` [Gemfibrozil], for which the “% Phosphatase Activity (compared to DMSO) PRL-3” value on recombinant PRL-3 (setting [1]) is 76%. Also, at recombinant PRL-2 (setting [1]), the “% Phosphatase Activity (compared to DMSO) PRL-2” value was found to be 95%. Further, the “% Phosphatase Activity (compared to DMSO) PRL-1” value at recombinant PRL-1 (setting [1]) came to 93%.

For `O=c1c(-c2ccc(O)cc2)coc2cc(O)cc(O)c12` [Genistein], the “% Phosphatase Activity (compared to DMSO) PRL-3” value at recombinant PRL-3 (setting [1]) worked out at 64%. The “% Phosphatase Activity (compared to DMSO) PRL-2” value on recombinant PRL-2 (setting [1]) stood at 100%. Moreover, the “% Phosphatase Activity (compared to DMSO) PRL-1” value at recombinant PRL-1 (setting [1]) was determined as 95%.

Turning to `C#C[C@]1(O)C=C[C@H]2[C@@H]3CCC4=CC(=O)CC[C@@H]4[C@H]3CC[C@@]21CC` [Gestodene], the “% Phosphatase Activity (compared to DMSO) PRL-3” value at recombinant PRL-3 (setting [1]) was 77%. The “% Phosphatase Activity (compared to DMSO) PRL-2” value on recombinant PRL-2 (setting [1]) worked out at 102%. Further, on recombinant PRL-1 (setting [1]), the “% Phosphatase Activity (compared to DMSO) PRL-1” value is given as 91%.

In the case of `Oc1cc(O)c(Cl)cn1` [Gimeracil], the “% Phosphatase Activity (compared to DMSO) PRL-3” value on recombinant PRL-3 (setting [1]) is on record as 94%. For the same compound, the “% Phosphatase Activity (compared to DMSO) PRL-2” value at recombinant PRL-2 (setting [1]) came out at 97%. Further, on recombinant PRL-1 (setting [1]), the “% Phosphatase Activity (compared to DMSO) PRL-1” value is on record as 102%.

On to `Cl.O=C(OCC(O)CO)c1ccccc1Nc1ccnc2cc(Cl)ccc12` (stereo not drawn) [Glafenine HCl], for which, at recombinant PRL-3 (setting [1]), the “% Phosphatase Activity (compared to DMSO) PRL-3” value was 80%. Further, the “% Phosphatase Activity (compared to DMSO) PRL-2” value on recombinant PRL-2 (setting [1]) was 71%. In addition, at recombinant PRL-1 (setting [1]), the “% Phosphatase Activity (compared to DMSO) PRL-1” value turned out to be 77%.

With `Cc1ccc(S(=O)(=O)NC(=O)NN2CC3CCCC3C2)cc1` (stereo not drawn) [Gliclazide], the “% Phosphatase Activity (compared to DMSO) PRL-3” value on recombinant PRL-3 (setting [1]) is 94%. In addition, the “% Phosphatase Activity (compared to DMSO) PRL-2” value on recombinant PRL-2 (setting [1]) is on record as 138%. Also, the “% Phosphatase Activity (compared to DMSO) PRL-1” value on recombinant PRL-1 (setting [1]) is reported as 112%.

Regarding `CCC1=C(C)CN(C(=O)NCCc2ccc(S(=O)(=O)NC(=O)N[C@H]3CC[C@H](C)CC3)cc2)C1=O` [Glimepiride], the “% Phosphatase Activity (compared to DMSO) PRL-3” value at recombinant PRL-3 (setting [1]) stood at 76%. Besides, at recombinant PRL-2 (setting [1]), the “% Phosphatase Activity (compared to DMSO) PRL-2” value came out at 88%. On recombinant PRL-1 (setting [1]), the “% Phosphatase Activity (compared to DMSO) PRL-1” value turned out to be 84%.

Turning to `Cc1cnc(C(=O)NCCc2ccc(S(=O)(=O)NC(=O)NC3CCCCC3)cc2)cn1` [Glipizide], the “% Phosphatase Activity (compared to DMSO) PRL-3” value on recombinant PRL-3 amounted to 75%. Besides, on recombinant PRL-2, the “% Phosphatase Activity (compared to DMSO) PRL-2” value stood at 98%. Further, at recombinant PRL-1, the “% Phosphatase Activity (compared to DMSO) PRL-1” value came to 97%.

On to `COc1ccc2c(c1)C(=O)N(CCc1ccc(S(=O)(=O)NC(=O)NC3CCCCC3)cc1)C(=O)C2(C)C` [Gliquidone], for which the “% Phosphatase Activity (compared to DMSO) PRL-3” value on recombinant PRL-3 (setting [1]) was found to be 86%. Moreover, the “% Phosphatase Activity (compared to DMSO) PRL-2” value on recombinant PRL-2 (setting [1]) came out at 86%. The “% Phosphatase Activity (compared to DMSO) PRL-1” value at recombinant PRL-1 (setting [1]) is listed as 99%.

As to `O=C1O[C@H](CO)[C@@H](O)[C@H](O)[C@H]1O` [Gluconolactone], on recombinant PRL-3 (setting [1]), the “% Phosphatase Activity (compared to DMSO) PRL-3” value was 82%. Moreover, on recombinant PRL-2 (setting [1]), the “% Phosphatase Activity (compared to DMSO) PRL-2” value was found to be 98%. In addition, the “% Phosphatase Activity (compared to DMSO) PRL-1” value at recombinant PRL-1 (setting [1]) came to 103%.

For `N[C@@H](CCC(=O)N[C@@H](CS)C(=O)NCC(=O)O)C(=O)O` [Glutathione], the “% Phosphatase Activity (compared to DMSO) PRL-3” value on recombinant PRL-3 came to 112%. In addition, on recombinant PRL-2, the “% Phosphatase Activity (compared to DMSO) PRL-2” value is 87%. Further, the “% Phosphatase Activity (compared to DMSO) PRL-1” value at recombinant PRL-1 worked out at 93%.

For the compound `COc1ccc(Cl)cc1C(=O)NCCc1ccc(S(=O)(=O)NC(=O)NC2CCCCC2)cc1` [Glyburide], on recombinant PRL-3 (setting [1]), the “% Phosphatase Activity (compared to DMSO) PRL-3” value worked out at 77%. The “% Phosphatase Activity (compared to DMSO) PRL-2” value at recombinant PRL-2 (setting [1]) was 100%. At recombinant PRL-1 (setting [1]), the “% Phosphatase Activity (compared to DMSO) PRL-1” value is 104%.

On to `C[N+]1(C)CCC(OC(=O)C(O)(c2ccccc2)C2CCCC2)C1` (stereo not drawn) [Glycopyrrolate], for which the “% Phosphatase Activity (compared to DMSO) PRL-3” value at recombinant PRL-3 (setting [1]) amounted to 82%. Moreover, the “% Phosphatase Activity (compared to DMSO) PRL-2” value at recombinant PRL-2 (setting [1]) stood at 101%. The “% Phosphatase Activity (compared to DMSO) PRL-1” value on recombinant PRL-1 (setting [1]) was 108%.

Regarding `CN1C2CCCC1CC(NC(=O)c1nn(C)c3ccccc13)C2` (stereo not drawn) [Granisetron HCl], the “% Phosphatase Activity (compared to DMSO) PRL-3” value on recombinant PRL-3 (setting [1]) was 93%. The “% Phosphatase Activity (compared to DMSO) PRL-2” value at recombinant PRL-2 (setting [1]) was 74%. In addition, the “% Phosphatase Activity (compared to DMSO) PRL-1” value on recombinant PRL-1 (setting [1]) was found to be 86%.

As for `COC1=CC(=O)C[C@@H](C)[C@]12Oc1c(Cl)c(OC)cc(OC)c1C2=O` [Griseofulvin], the “% Phosphatase Activity (compared to DMSO) PRL-3” value at recombinant PRL-3 (setting [1]) is given as 90%. Also, on recombinant PRL-2 (setting [1]), the “% Phosphatase Activity (compared to DMSO) PRL-2” value was 125%. Also, the “% Phosphatase Activity (compared to DMSO) PRL-1” value at recombinant PRL-1 (setting [1]) stood at 112%.

In the case of `COc1ccccc1OCC(O)CO` (stereo not drawn) [Guaifenesin], the “% Phosphatase Activity (compared to DMSO) PRL-3” value on recombinant PRL-3 (setting [1]) came to 100%. At recombinant PRL-2 (setting [1]), the “% Phosphatase Activity (compared to DMSO) PRL-2” value was 92%. Moreover, the “% Phosphatase Activity (compared to DMSO) PRL-1” value at recombinant PRL-1 (setting [1]) is 102%.

Turning to `N=C(N)N/N=C/c1c(Cl)cccc1Cl` [Guanabenz Acetate], on recombinant PRL-3 (setting [1]), the “% Phosphatase Activity (compared to DMSO) PRL-3” value is listed as 68%. Also, on recombinant PRL-2 (setting [1]), the “% Phosphatase Activity (compared to DMSO) PRL-2” value is on record as 108%. Besides, the “% Phosphatase Activity (compared to DMSO) PRL-1” value at recombinant PRL-1 (setting [1]) is listed as 94%.
